# Source: PubChem BioAssay (NCI)
# Where “and” joins values, the source holds several entries; their conditions need not be identical. Equal values may be shown once.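 Assay format: 96-well plates, 48-hour exposure. Here, GI50 denotes the concentration required for 50% inhibition of growth. TGI marks complete inhibition of growth.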
# Legend:
# Assay in all cases: DTP human tumour cell line panel, 48 h
# SF-268 CNS = system: SF-268 CNS
# MDA-MB-231 breast = system: MDA-MB-231 breast
# 786-0 renal = system: 786-0 renal
# RPMI-8226 leukemia = system: RPMI-8226 leukemia
# OVCAR-4 ovarian = system: OVCAR-4 ovarian
# OVCAR-3 ovarian = system: OVCAR-3 ovarian
# SR leukemia = system: SR leukemia
# MOLT-4 leukemia = system: MOLT-4 leukemia
Compound,GI50 (SF-268 CNS),TGI (SF-268 CNS),GI50 (MDA-MB-231 breast),TGI (MDA-MB-231 breast),GI50 (786-0 renal),TGI (786-0 renal),GI50 (RPMI-8226 leukemia),TGI (RPMI-8226 leukemia),GI50 (OVCAR-4 ovarian),TGI (OVCAR-4 ovarian),GI50 (OVCAR-3 ovarian),TGI (OVCAR-3 ovarian),GI50 (SR leukemia),TGI (SR leukemia),GI50 (MOLT-4 leukemia),TGI (MOLT-4 leukemia)
Cc1cc(NN=C(c2ccc(O)cc2)c2ccc(O)cc2)c([N+](=O)[O-])cc1[N+](=O)[O-],5.34 µM,57.3 µM,4.7 µM,20.7 µM,5.39 µM,22.1 µM,1.32 µM,4.16 µM,6.38 µM,> 100 µM,4.14 µM,19.4 µM,5.55 µM,50.2 µM,1.84 µM,14.6 µM
CC(=O)OCC1OC(n2c3c(cc(C#N)c2=S)CCCC3)C(OC(C)=O)C(OC(C)=O)C1OC(C)=O (centres undefined),> 100 µM and 22.9 µM,> 100 µM,–,> 100 µM,> 100 µM and 26.9 µM,> 100 µM,32.6 µM and > 100 µM,> 100 µM,–,> 100 µM,45.2 µM and > 100 µM,> 100 µM,32.4 µM and > 100 µM,> 100 µM,31.9 µM and > 100 µM,> 100 µM
CCOC1Oc2ccc(C)cc2C(=O)/C1=C\Nc1ccc(S(N)(=O)=O)cc1 (centres undefined),16.1 µM,> 50 µM,11.7 µM,35.5 µM,6.88 µM,13.6 µM,6.21 µM,25.2 µM,15.2 µM,> 50 µM,12.5 µM,36.5 µM,9.23 µM,> 50 µM,13.9 µM,> 50 µM
C=C1C[C@@H]2O[C@H]3[C@H]4[C@@H](CC[C@@](C)(OC(=O)CCC)[C@H]42)[C@@H](C)C(=O)O[C@@]3(C)CC[C@H]1OO,12.8 µM,26 µM,17.9 µM,33.2 µM,> 100 µM,> 100 µM,14 µM,28.8 µM,19.5 µM,40.2 µM,13.9 µM,29.2 µM,5.48 µM,18.4 µM,11 µM,23 µM
COc1ccc(C2NC(=S)NC3=C2CCOc2c3ccc3ccccc23)cc1 (centres undefined),6.73 µM,> 100 µM,98.9 µM,> 100 µM,> 100 µM,> 100 µM,12.8 µM,> 100 µM,> 100 µM,> 100 µM,51.5 µM,> 100 µM,7.27 µM,> 100 µM,87.1 µM,> 100 µM
O=C(O)CCCCC1CCSS1 (centres undefined),–,> 100 µM,–,> 100 µM,–,> 100 µM,–,> 100 µM,–,> 100 µM,–,> 100 µM,–,> 100 µM,–,> 100 µM
CC[C@H]1OC(=O)[C@H](C)[C@@H](O[C@H]2C[C@@](C)(OC)[C@@H](O)[C@H](C)O2)[C@H](C)[C@@H](O[C@@H]2O[C@H](C)C[C@H](N(C)C)[C@H]2O)[C@](C)(OC)C/C(C)=C2/O[C@@]1(C)C=C2C,1.6 µM,3.3 µM,1.67 µM,3.13 µM,1.64 µM,3.16 µM,1.9 µM,5.14 µM,1.85 µM,4.22 µM,1.76 µM,3.28 µM,1.97 µM,5.09 µM,1.96 µM,4.49 µM
CCOC(=O)/C(=C\c1ccc2ccccc2c1)P(=O)(OCC)OCC,3.28 µM,14.3 µM,3.57 µM,13.4 µM,2.26 µM,5.61 µM,2.27 µM,6.54 µM,4.16 µM,20.1 µM,1.95 µM,4.07 µM,1.69 µM,8.19 µM,2.16 µM,6.25 µM
CCOc1ccc2cc(-c3nn(CC4CCNCC4)c4ncnc(N)c34)ccc2c1,12 µM,28.2 µM,11.1 µM,25.5 µM,14.6 µM,28.4 µM,14 µM,34.6 µM,10.9 µM,33.4 µM,18.1 µM,43.8 µM,4.23 µM,19.6 µM,4.73 µM,19.8 µM
CN1CC[C@H](c2c(O)cc(O)c3c(=O)cc(-c4ccccc4Cl)oc23)[C@H](O)C1,0.0647 µM,–,0.23 µM,> 10 µM,0.0717 µM,> 10 µM,0.076 µM,> 2.32 µM,0.14 µM,1.54 µM,0.0546 µM,> 10 µM,0.0045 µM,> 2.67 µM,0.076 µM,> 10 µM
COc1cc2c3cc1Oc1c(OC)c(OC)cc4c1C(Cc1ccc(O)c(c1)Oc1ccc(cc1)CC3N(C)CC2)N(C)CC4 (centres undefined),15.2 µM,64.2 µM and 51.8 µM,5.21 µM,> 100 µM and 21.9 µM,–,> 100 µM and 33.3 µM,11.8 µM,40.1 µM,15.3 µM,> 100 µM and 50.7 µM,–,39.1 µM,3.32 µM,21 µM,12.1 µM,> 100 µM and 54.9 µM
CCOC(=O)[C@@H]1CSC(CC)=C(C(=O)O)N1,> 100 µM,> 100 µM,> 100 µM,> 100 µM,> 100 µM,> 100 µM,> 100 µM,> 100 µM,> 100 µM,> 100 µM,> 100 µM,> 100 µM,> 100 µM,> 100 µM,> 100 µM,> 100 µM
C#C[C@]1(O)CC[C@H]2[C@@H]3CC=C4c5nc(N)sc5CC[C@]4(C)[C@H]3CC[C@@]21C,3.57 µM,16.5 µM,3.07 µM,9.67 µM,2.06 µM,4.41 µM,1.57 µM,4.73 µM,13.2 µM,70.5 µM,3.1 µM,9.84 µM,2.31 µM,9.18 µM,2.18 µM,6.24 µM
O=C(O)c1ccccc1NCn1c(=S)sc2ccccc21,–,> 100 µM,–,> 100 µM,–,> 100 µM,–,95.4 µM,–,> 100 µM,–,> 100 µM,–,81.6 µM,–,> 100 µM
N#[N+]c1ccc(Nc2ccccc2)cc1,> 50 µg/mL,> 50 µg/mL,> 50 µg/mL,> 50 µg/mL,> 50 µg/mL,> 50 µg/mL,> 50 µg/mL,> 50 µg/mL,0.472 µg/mL,2.27 µg/mL,> 50 µg/mL,> 50 µg/mL,> 50 µg/mL,> 50 µg/mL,> 50 µg/mL,> 50 µg/mL
